Measured values reported in the NIST ThermoML archive (doi:10.1021/je400659p).

Assays:
[1] = xn = mol fraction of the nth substance listed; settings: 101 kPa, Liquid, Vibrating tube method
[2] = refractive index (Na D-line) (dimensionless); xn = mol fraction of the nth substance listed; settings: 101 kPa, Liquid, Standard Abbe refractometry
[3] = refractive index (Na D-line) (dimensionless); settings: 101.33 kPa, Liquid, Standard Abbe refractometry
[4] = 101 kPa, Liquid, Vibrating tube method

CCCCn1cc[n+](C)c1.F[B-](F)(F)F [1-butyl-3-methylimidazolium tetrafluoroborate] + C1COCCO1
x1 = 1
Settings	mass density, [1] [kg/m3]	refractive index, [2]
293.15 K	1204.44	–
298.15 K	1200.89	1.4215
303.15 K	1197.34	1.4202
313.15 K	1190.27	1.4179
323.15 K	1183.24	1.4153
333.15 K	1176.25	–
343.15 K	1169.32	–
353.15 K	1162.44	–

CCCCn1cc[n+](C)c1.F[B-](F)(F)F [1-butyl-3-methylimidazolium tetrafluoroborate]
Settings	mass density, [4] [kg/m3]	refractive index, [3]
293.15 K	1204.44	–
298.15 K	1200.89	1.4215
303.15 K	1197.34	1.4202
313.15 K	1190.27	1.4179
323.15 K	1183.24	1.4153
333.15 K	1176.25	–
343.15 K	1169.32	–
353.15 K	1162.44	–

CCn1cc[n+](C)c1.F[B-](F)(F)F [1-ethyl-3-methylimidazolium tetrafluoroborate]
Settings	mass density, [4] [kg/m3]	refractive index, [3]
293.15 K	1290.63	–
298.15 K	1286.82	1.4111
303.15 K	1283.02	1.41
313.15 K	1275.45	1.4073
323.15 K	1267.97	1.4051
333.15 K	1260.55	–
343.15 K	1253.18	–
353.15 K	1245.87	–

C1COCCO1 [1,4-dioxane]
Settings	mass density, [4] [kg/m3]	refractive index, [3]
293.15 K	1033.57	–
298.15 K	1027.92	1.4205
303.15 K	1022.27	1.4171
313.15 K	1010.91	1.4112
323.15 K	999.49	1.4063
333.15 K	987.97	–
343.15 K	976.37	–
353.15 K	964.63	–

CCCCn1cc[n+](C)c1.F[B-](F)(F)F [1-butyl-3-methylimidazolium tetrafluoroborate] + OCCO
refractive index, [2]
Settings	x1 = 0.0895	x1 = 0.1758	x1 = 0.3578	x1 = 0.4397	x1 = 0.6482	x1 = 0.8121	x1 = 1
298.15 K	1.4276	1.4257	1.4231	1.4224	1.4217	1.4216	1.4215
303.15 K	1.4258	1.4239	1.4216	1.4211	1.4205	1.4204	1.4202
313.15 K	1.4231	1.4212	1.4188	1.4182	1.4178	1.4179	1.4179
323.15 K	1.4203	1.4184	1.4159	1.4154	1.415	1.4152	1.4153

C1COCCO1 [1,4-dioxane] + CCn1cc[n+](C)c1.F[B-](F)(F)F
x2 = 0
Settings	mass density, [1] [kg/m3]	refractive index, [2]
293.15 K	1033.57	–
298.15 K	1027.92	1.4205
303.15 K	1022.27	1.4171
313.15 K	1010.91	1.4112
323.15 K	999.49	1.4063
333.15 K	987.97	–
343.15 K	976.37	–
353.15 K	964.63	–

OCCO [1,2-ethanediol] + CCn1cc[n+](C)c1.F[B-](F)(F)F
x2 = 0
Settings	mass density, [1] [kg/m3]	refractive index, [2]
293.15 K	1113.45	–
298.15 K	–	1.43
303.15 K	1106.45	1.4285
313.15 K	1099.38	1.4258
323.15 K	1092.24	1.4229
333.15 K	1085	–
343.15 K	1077.65	–
353.15 K	1070.17	–

OCCO [1,2-ethanediol]
Settings	mass density, [4] [kg/m3]	refractive index, [3]
293.15 K	1113.45	–
298.15 K	–	1.43
303.15 K	1106.45	1.4285
313.15 K	1099.38	1.4258
323.15 K	1092.24	1.4229
333.15 K	1085	–
343.15 K	1077.65	–
353.15 K	1070.17	–

OCCO [1,2-ethanediol] + CCCCn1cc[n+](C)c1.F[B-](F)(F)F
[2], x2 = 0
Settings	refractive index
298.15 K	1.43
303.15 K	1.4285
313.15 K	1.4258
323.15 K	1.4229
